Assay results taken from patent US9708334B2, “Substituted 2,4,5,6-tetrahydropyrrolo[3,4-c]pyrazole and 4,5,6,7-tetrahydro-2H-pyrazolo[4,3-c]pyridine compounds as GlyT1 inhibitors” (DART NEUROSCIENCE (CAYMAN) LTD., priority 2014, dated 2017).

The molecules below were run against T1, GlyT1 (Homo sapiens, UniProt P48067) (assay: Glycine Transporter 1 (GlyT1) uptake assay, scintillation proximity assay of [14C]-glycine uptake). Conditions: SPA, four parameter logistic fit, read-out: GlyT1 (pIC50) (converted).
T1 construct: expressed in transfected cells
T1 sequence (P48067 1-706): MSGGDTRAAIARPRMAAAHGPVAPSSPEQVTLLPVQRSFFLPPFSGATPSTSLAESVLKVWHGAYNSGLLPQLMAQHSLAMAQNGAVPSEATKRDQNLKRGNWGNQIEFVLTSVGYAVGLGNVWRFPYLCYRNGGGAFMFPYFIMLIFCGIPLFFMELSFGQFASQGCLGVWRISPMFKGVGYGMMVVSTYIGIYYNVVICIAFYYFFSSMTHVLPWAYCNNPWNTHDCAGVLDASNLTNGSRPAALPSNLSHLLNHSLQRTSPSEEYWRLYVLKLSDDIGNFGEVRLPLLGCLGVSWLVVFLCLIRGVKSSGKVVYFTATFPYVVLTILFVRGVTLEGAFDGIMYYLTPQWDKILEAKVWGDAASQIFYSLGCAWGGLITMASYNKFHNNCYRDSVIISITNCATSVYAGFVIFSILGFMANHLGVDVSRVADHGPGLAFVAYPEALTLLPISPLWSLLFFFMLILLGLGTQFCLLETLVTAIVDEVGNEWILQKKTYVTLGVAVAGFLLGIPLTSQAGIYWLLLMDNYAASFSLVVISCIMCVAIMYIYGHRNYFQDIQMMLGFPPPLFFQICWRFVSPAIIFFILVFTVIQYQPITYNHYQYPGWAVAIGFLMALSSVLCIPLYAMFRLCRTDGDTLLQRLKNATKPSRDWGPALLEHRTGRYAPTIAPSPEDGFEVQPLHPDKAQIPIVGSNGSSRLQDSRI
Format: cell-based
Method in brief: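 [14C]-glycine uptake read by scintillation proximity on a plate counter. IC50 from four-parameter logistic fit of dose-response data.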

| Structure (SMILES) | IC50 [nM] |
| --- | --- |
| COc1c(C#N)ccc(OC(C)C(F)(F)F)c1C(=O)N1CCc2nn(-c3ccccc3)cc2C1 (stereo not drawn) [Example 176, 2-Methoxy-3-{2-phenyl-2H 4H 5H 6H 7H-pyrazolo[4,3-c]pyridine-5-carbonyl}-4-[(1 1 1-trifluoropropan-2-yl)oxy]benzonitrile] | < 100 |
| CC(Oc1ccc(C#N)c(Cl)c1C(=O)N1CCc2nn(-c3ccc(F)cc3)cc2C1)C(F)(F)F (stereo not drawn) [Example 177, 2-Chloro-3-[2-(4-fluorophenyl)-2H 4H 5H 6H 7H-pyrazolo[4,3-c]pyridine-5-carbonyl]-4-[(1 1 1-trifluoropropan-2-yl)oxy]benzonitrile] | 100 to 1000 |
| N#Cc1ccc(C2(F)COC2)c(C(=O)N2CCc3nn(-c4ccccc4)cc3C2)c1F [Example 178, 2-Fluoro-4-(3-fluorooxetan-3-yl)-3-{2-phenyl-2H 4H 5H 6H 7H-pyrazolo[4,3-c]pyridine-5-carbonyl}benzonitrile] | > 10000 |
| CC(Oc1ccc(C#N)c(Cl)c1C(=O)N1CCc2c(cnn2-c2ccc(F)cc2F)C1)C(F)(F)F (stereo not drawn) [Example 179, 2-Chloro-3-[1-(2 4-difluorophenyl)-1H 4H 5H 6H 7H-pyrazolo[4,3-c]pyridine-5-carbonyl]-4-[(1 1 1-trifluoropropan-2-yl)oxy]benzonitrile] | 100 to 1000 |
| N#Cc1ccc(C2CCC2)c(C(=O)N2CCc3nn(-c4ccccc4)cc3C2)c1F [Example 180, 4-Cyclobutyl-2-fluoro-3-{2-phenyl-2H 4H 5H 6H 7H-pyrazolo[4,3-c]pyridine-5-carbonyl}benzonitrile] | 1000 to 10000 |
| CC(Oc1ccc(C#N)cc1C(=O)N1CCc2nn(-c3ccc(F)cc3)cc2C1)C(F)(F)F (stereo not drawn) [Example 181, 3-[2-(4-Fluorophenyl)-2H 4H 5H 6H 7H-pyrazolo[4,3-c]pyridine-5-carbonyl]-4-[(1 1 1-trifluoropropan-2-yl)oxy]benzonitrile] | 1000 to 10000 |
| CC(Oc1ccc(C#N)c(Cl)c1C(=O)N1CCc2c(c(C(F)(F)F)nn2C)C1)C(F)(F)F (stereo not drawn) [Example 182, 2-Chloro-3-[1-methyl-3-(trifluoromethyl)-1H 4H 5H 6H 7H-pyrazolo[4,3-c]pyridine-5-carbonyl]-4-[(1 1 1-trifluoropropan-2-yl)oxy]benzonitrile] | 1000 to 10000 |
| CC(Oc1ccc(C#N)c(Cl)c1C(=O)N1CCc2[nH]ncc2C1)C(F)(F)F (stereo not drawn) [Example 183, 2-Chloro-3-{1H 4H 5H 6H 7H-pyrazolo[4,3-c]pyridine-5-carbonyl}-4-[(1 1 1-trifluoropropan-2-yl)oxy]benzonitrile] | > 10000 |
| CCOc1c2c(nn1-c1ccc(F)cc1)CCN(C(=O)c1c(OC(C)C(F)(F)F)ccc(C#N)c1Cl)C2 (stereo not drawn) [Example 184, 2-Chloro-3-[3-ethoxy-2-(4-fluorophenyl)-2H 4H 5H 6H 7H-pyrazolo[4,3-c]pyridine-5-carbonyl]-4-[(1 1 1-trifluoropropan-2-yl)oxy]benzonitrile] | 1000 to 10000 |
| CC(Oc1ccc(C#N)c(Cl)c1C(=O)N1Cc2cnn(-c3ccc(F)cc3)c2C(C)(C)C1)C(F)(F)F (stereo not drawn) [Example 185, 2-Chloro-3-[1-(4-fluorophenyl)-7 7-dimethyl-1H 4H 5H 6H 7H-pyrazolo[4,3-c]pyridine-5-carbonyl]-4-[(1 1 1-trifluoropropan-2-yl)oxy]benzonitrile] | < 100 |
| CC(Oc1ccc(C#N)c(Cl)c1C(=O)N1CCc2nn(C)c(C(F)(F)F)c2C1)C(F)(F)F (stereo not drawn) [Example 186, 2-Chloro-3-[2-methyl-3-(trifluoromethyl)-2H 4H 5H 6H 7H-pyrazolo[4,3-c]pyridine-5-carbonyl]-4-[(1 1 1-trifluoropropan-2-yl)oxy]benzonitrile] | 1000 to 10000 |

Second part, the molecule after the results:

| IC50 [nM] | Structure (SMILES) |
| --- | --- |
| 100 to 1000 | N#Cc1ccc(C2(F)CCCC2)c(C(=O)N2CCc3nn(-c4ccccc4)cc3C2)c1F [Example 187, 2-Fluoro-4-(1-fluorocyclopentyl)-3-{2-phenyl-2H 4H 5H 6H 7H-pyrazolo[4,3-c]pyridine-5-carbonyl}benzonitrile] |
| 100 to 1000 | N#Cc1ccc(C2(F)CCCC2)c(C(=O)N2CCc3nn(-c4ccc(F)cc4)cc3C2)c1F [Example 188, 2-Fluoro-4-(1-fluorocyclopentyl)-3-[2-(4-fluorophenyl)-2H 4H 5H 6H 7H-pyrazolo[4,3-c]pyridine-5-carbonyl]benzonitrile] |
| 100 to 1000 | Cc1c2c(nn1-c1ccc(F)cc1)CCN(C(=O)c1c(OC(C)C(F)(F)F)ccc(C#N)c1Cl)C2 (stereo not drawn) [Example 189, 2-Chloro-3-[2-(4-fluorophenyl)-3-methyl-2H 4H 5H 6H 7H-pyrazolo[4,3-c]pyridine-5-carbonyl]-4-[(1 1 1-trifluoropropan-2-yl)oxy]benzonitrile] |
| 100 to 1000 | Cc1nn(-c2ccc(F)cc2)c2c1CN(C(=O)c1c(OC(C)C(F)(F)F)ccc(C#N)c1Cl)CC2 (stereo not drawn) [Example 190, 2-Chloro-3-[1-(4-fluorophenyl)-3-methyl-1H 4H 5H 6H 7H-pyrazolo[4,3-c]pyridine-5-carbonyl]-4-[(1 1 1-trifluoropropan-2-yl)oxy]benzonitrile] |
| 1000 to 10000 | CC(Oc1ccc(C#N)c(Cl)c1C(=O)N1Cc2cn(-c3ccc(F)cc3)nc2C(C)(C)C1)C(F)(F)F (stereo not drawn) [Example 191, 2-Chloro-3-[2-(4-fluorophenyl)-7 7-dimethyl-2H 4H 5H 6H 7H-pyrazolo[4,3-c]pyridine-5-carbonyl]-4-[(1 1 1-trifluoropropan-2-yl)oxy]benzonitrile] |
| 1000 to 10000 | COc1c(C#N)ccc(OC(C)C(F)(F)F)c1C(=O)N1Cc2cn(-c3ccc(F)cc3)nc2C(C)(C)C1 (stereo not drawn) [Example 192, 3-[2-(4-Fluorophenyl)-7 7-dimethyl-2H 4H 5H 6H 7H-pyrazolo[4,3-c]pyridine-5-carbonyl]-2-methoxy-4-[(1 1 1-trifluoropropan-2-yl)oxy]benzonitrile] |
| 100 to 1000 | CC(Oc1ccc(C#N)c(Cl)c1C(=O)N1CCc2nn(-c3ccccc3)cc2C1)C(F)(F)F (stereo not drawn) [Example 193, 2-Chloro-3-{2-phenyl-2H 4H 5H 6H 7H-pyrazolo[4,3-c]pyridine-5-carbonyl}-4-[(1 1 1-trifluoropropan-2-yl)oxy]benzonitrile] |
| 100 to 1000 | COc1c(C#N)ccc(OC(C)C(F)(F)F)c1C(=O)N1CCc2nn(-c3ccc(F)cc3F)cc2C1 (stereo not drawn) [Example 194, 3-[2-(2 4-Difluorophenyl)-2H 4H 5H 6H 7H-pyrazolo[4,3-c]pyridine-5-carbonyl]-2-methoxy-4-[(1 1 1-trifluoropropan-2-yl)oxy]benzonitrile] |
| 100 to 1000 | CC(Oc1ccc(C#N)c(Cl)c1C(=O)N1CCc2c(cnn2Cc2ccccc2)C1)C(F)(F)F (stereo not drawn) [Example 195, 3-{1-Benzyl-1H 4H 5H 6H 7H-pyrazolo[4,3-c]pyridine-5-carbonyl}-2-chloro-4-[(1 1 1-trifluoropropan-2-yl)oxy]benzonitrile] |
| 100 to 1000 | CC(Oc1ccc(C(N)=O)c(Cl)c1C(=O)N1CCc2nn(-c3ccc(F)cc3)cc2C1)C(F)(F)F (stereo not drawn) [Example 196, 2-Chloro-3-[2-(4-fluorophenyl)-2H 4H 5H 6H 7H-pyrazolo[4,3-c]pyridine-5-carbonyl]-4-[(1 1 1-trifluoropropan-2-yl)oxy]benzamide] |
| > 10000 | CC(Oc1ccc(C#N)c(Cl)c1C(=O)N1CCc2nn(-c3ccc(F)cc3)c(O)c2C1)C(F)(F)F (stereo not drawn) [Example 197, 2-Chloro-3-[2-(4-fluorophenyl)-3-hydroxy-2H 4H 5H 6H 7H-pyrazolo[4,3-c]pyridine-5-carbonyl]-4-[(1 1 1-trifluoropropan-2-yl)oxy]benzonitrile] |
| < 100 | COc1c(S(C)(=O)=O)ccc(OC(C)C(F)(F)F)c1C(=O)N1CCc2nn(-c3ccc(F)cc3)cc2C1 (stereo not drawn) [Example 198, 2-(4-Fluorophenyl)-5-{3-methanesulfonyl-2-methoxy-6-[(1 1 1-trifluoropropan-2-yl)oxy]benzoyl}-2H 4H 5H 6H 7H-pyrazolo[4,3-c]pyridine] |
| 1000 to 10000 | N#Cc1ccc(C2(F)CCOCC2)c(C(=O)N2CCc3nn(-c4ccc(F)cc4)cc3C2)c1F [Example 199, 2-Fluoro-4-(4-fluorooxan-4-yl)-3-[2-(4-fluorophenyl)-2H 4H 5H 6H 7H-pyrazolo[4,3-c]pyridine-5-carbonyl]benzonitrile] |
| 1000 to 10000 | CC(Oc1ccc(C(=O)N(C)C)c(Cl)c1C(=O)N1CCc2nn(-c3ccc(F)cc3)cc2C1)C(F)(F)F (stereo not drawn) [Example 200, 2-Chloro-3-[2-(4-fluorophenyl)-2H 4H 5H 6H 7H-pyrazolo[4,3-c]pyridine-5-carbonyl]-N N-dimethyl-4-[(1 1 1-trifluoropropan-2-yl)oxy]benzamide] |
| 100 to 1000 | CC(Oc1ccc(C#N)c(Cl)c1C(=O)N1CCc2nn(-c3ccc(F)cn3)cc2C1)C(F)(F)F (stereo not drawn) [Example 201, 2-Chloro-3-[2-(5-fluoropyridin-2-yl)-2H 4H 5H 6H 7H-pyrazolo[4,3-c]pyridine-5-carbonyl]-4-[(1 1 1-trifluoropropan-2-yl)oxy]benzonitrile] |
| 100 to 1000 | COc1c(C#N)ccc(OC(C)C(F)(F)F)c1C(=O)N1CCc2nn(-c3ccc(F)cn3)cc2C1 (stereo not drawn) [Example 202, 3-[2-(5-Fluoropyridin-2-yl)-2H 4H 5H 6H 7H-pyrazolo[4,3-c]pyridine-5-carbonyl]-2-methoxy-4-[(1 1 1-trifluoropropan-2-yl)oxy]benzonitrile] |
